Data published in EP3331365B1, “AGENT FOR FIGHTING FISH PARASITES” (Pharmaq AS, priority 2015, dated 2017).

How the values were obtained:
Assay type in all cases: in vivo
Lepeophtheirus salmonis = test: Lesa assay: bioassay on salmon lice, 1 hour exposure in seawater; conditions: monitored until 96 hours post exposure, 8-10 °C
Description: The stock was then diluted in saltwater to the appropriate concentration.
Control formulations were also prepared comprising only solvent (acetone) and solubilizer (Kolliphor EL) in the same ratio as the test formulation. A salt water control was also used.
Bioassay experiments were then conducted on copepodites and pre-adult/adult salmon lice (Lepeophtheirus salmonis).
After 1 hour exposure, the lice were transferred to modified 6 well plates and washed twice in saltwater. The plates were then incubated and the numbers of dead and surviving lice were monitored until 96 hours post exposure. The experimental temperature was maintained at 8-10 °C.

[1] = tested on: tilapia (Oreochromis niloticus); test: Toxicity to fish, intraperitoneal injection
Description: . Tilapia of mean weight of 158 grams reared in freshwater at 29°C were distributed in three groups of 10 fish. Each group was injected with 0.05 ml of the relevant formulation, or PBS control.

sea lice (L. salmonis) = test: Bath treatment of sea lice infested Atlantic salmon: count of attached female sea lice; conditions: 2ppm for 60 minutes by bath; 12°C seawater; counted three days after treatment
Description: Diafenthiuron was tested for use in treating fish parasites.
Atlantic salmon were acclimatized to 12°C seawater.
Three days after treatment the number of attached female sea lice was counted. The number of adult female sea lice was reduced by 56% in the treated group.

CC(C)c1cc(Oc2ccccc2)cc(C(C)C)c1NC(=S)NC(C)(C)C [Diafenthiuron, 1-tert-butyl-3-(2,6-diisopropyl-4-phenoxyphenyl)thiourea]
% dead (Lepeophtheirus salmonis; Copepodites, 0.5 ppm): 77% | Dead/total (Lepeophtheirus salmonis; Copepodites, 0.5 ppm): 10/13 | % dead (Lepeophtheirus salmonis; Copepodites, 2.0 ppm): 100% | Dead/total (Lepeophtheirus salmonis; Copepodites, 2.0 ppm): 20/20 | % dead (Lepeophtheirus salmonis; Copepodites, 20 ppb): 48% | Dead/total (Lepeophtheirus salmonis; Copepodites, 20 ppb): 11/23 | % dead (Lepeophtheirus salmonis; Pre-adult/adult, 2.0 ppm): 100% | Dead/total (Lepeophtheirus salmonis; Pre-adult/adult, 2.0 ppm): 5/5 | % mortality ([1]; 0.05 ml of 25 mg/ml in PEG400 (85%)/DMSO (15%), intraperitoneal injection, 5 days, same mortality in group without diafenthiuron): 10% | No. of fish healthy after 5 days ([1]; 0.05 ml of 25 mg/ml in PEG400 (85%)/DMSO (15%), intraperitoneal injection, freshwater 29°C, 10 fish): 9/10 | treated fish alive and healthy ([1]; five days after treatment, 25 mg/ml in PEG400/DMSO, 0.05 ml intraperitoneal injection): 90% | reduction of the number of adult female sea lice (sea lice (L. salmonis)): 56%
